Laboratory results published in ChEMBL document CHEMBL1123652, “Optimization and in vivo evaluations of a series of small, potent, and specific renin inhibitors containing a novel Leu-Val replacement” (J Med Chem, 1987).

What was measured:
[1] = biological target: T1, Renin (Homo sapiens, UniProt P00797); experiment: Evaluated in vitro for inhibitory potency against renin.
T1 sequence (P00797 whole entry): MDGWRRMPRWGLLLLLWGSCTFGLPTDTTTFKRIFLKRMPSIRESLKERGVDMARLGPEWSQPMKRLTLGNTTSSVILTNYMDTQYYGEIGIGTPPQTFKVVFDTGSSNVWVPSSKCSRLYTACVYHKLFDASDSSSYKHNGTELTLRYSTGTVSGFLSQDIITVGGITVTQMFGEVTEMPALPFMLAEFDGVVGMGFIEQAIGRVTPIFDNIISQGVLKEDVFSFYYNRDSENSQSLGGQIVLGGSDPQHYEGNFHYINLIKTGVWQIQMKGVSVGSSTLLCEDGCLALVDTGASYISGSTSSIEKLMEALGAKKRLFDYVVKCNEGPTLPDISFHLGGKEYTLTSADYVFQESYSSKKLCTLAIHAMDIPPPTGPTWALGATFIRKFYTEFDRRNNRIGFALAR

[2] = biological target: Pepsin A (Sus scrofa) (UniProt P00791); experiment: Evaluated for the percentage of inhibition of porcine pepsin at E-5M concentration
[3] = biological target: T2, Cathepsin D (Bos taurus) (UniProt P80209); experiment: Evaluated for the percentage of inhibition of bovine cathepsin D at E-5M concentration
T2 sequence (whole entry): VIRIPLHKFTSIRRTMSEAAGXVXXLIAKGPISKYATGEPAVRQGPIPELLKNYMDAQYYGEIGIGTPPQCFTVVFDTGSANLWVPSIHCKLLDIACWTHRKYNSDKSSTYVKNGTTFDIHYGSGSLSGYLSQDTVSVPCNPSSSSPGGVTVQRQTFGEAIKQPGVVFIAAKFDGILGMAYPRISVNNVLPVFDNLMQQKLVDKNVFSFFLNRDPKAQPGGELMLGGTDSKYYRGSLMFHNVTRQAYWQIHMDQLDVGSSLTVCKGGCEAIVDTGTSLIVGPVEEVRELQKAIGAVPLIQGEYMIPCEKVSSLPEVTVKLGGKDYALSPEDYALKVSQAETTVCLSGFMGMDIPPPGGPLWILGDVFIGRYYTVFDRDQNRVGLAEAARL

[4] = biological target: T2, Cathepsin D (Bos taurus); experiment: Compound is evaluated for the percentage of inhibition of […] 10e-5 M concentration in, bovine cathepsin D
[5] = biological target: Pepsin A (Sus scrofa) (UniProt P00791); experiment: Compound is evaluated for the percentage of inhibition of […] 10 e-5M concentration in porcine pepsin
[6] = biological target: T3, Renin (Homo sapiens) (UniProt P00797); experiment: Evaluated in vitro for inhibitory potency against renin at 10e-6 M
T3 sequence (whole entry): T1 sequence (P00797 whole entry)

Sequence of Pepsin A (Sus scrofa) (P00791 60-385 limits assumed): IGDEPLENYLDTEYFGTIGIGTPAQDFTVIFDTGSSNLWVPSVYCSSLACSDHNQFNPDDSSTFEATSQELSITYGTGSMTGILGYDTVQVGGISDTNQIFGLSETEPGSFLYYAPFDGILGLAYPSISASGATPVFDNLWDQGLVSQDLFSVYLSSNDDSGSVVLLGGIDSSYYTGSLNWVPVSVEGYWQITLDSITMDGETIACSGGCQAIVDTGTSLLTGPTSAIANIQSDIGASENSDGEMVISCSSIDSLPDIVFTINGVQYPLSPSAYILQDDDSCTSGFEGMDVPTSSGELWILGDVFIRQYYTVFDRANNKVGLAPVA

| SMILES | IC50 [1] [nM] | inhibition [2] [%] | inhibition [3] [%] | also measured |
| --- | --- | --- | --- | --- |
| O=C(NC(Cc1c[nH]cn1)C(=O)N[C@@H](CC1CCCCC1)[C@@H](O)CSC1CCCCC1)C(Cc1ccccc1)Cc1ccccc1 (some centres undefined) |  | 0 | 0 |  |
| CC(C)SC[C@H](O)[C@H](CC1CCCCC1)NC(=O)[C@H](C)NC(=O)[C@H](Cc1ccccc1)NC(=O)OC(C)(C)C | 9.9 |  |  |  |
| CC(C)S(=O)(=O)C[C@H](O)[C@H](CC1CCCCC1)NC(=O)[C@H](CCCCNC(=O)OCc1ccccc1)NC(=O)[C@H](Cc1ccccc1)NC(=O)OC(C)(C)C | 100 |  |  |  |
| CC(C)S(=O)(=O)C[C@H](O)[C@H](CC1CCCCC1)NC(=O)[C@H](Cc1c[nH]cn1)NC(=O)[C@H](Cc1ccccc1)NC(=O)CC(C)(C)C [listing 2 of 3 here] | 3 |  |  |  |
| CC(C)S(=O)(=O)C[C@H](O)[C@H](CC1CCCCC1)NC(=O)[C@H](CO)NC(=O)[C@H](Cc1ccccc1)NC(=O)OC(C)(C)C | 40 | 0 | 47 |  |
| CC(C)(C)OC(=O)N[C@@H](Cc1ccccc1)C(=O)N[C@@H](Cc1c[nH]cn1)C(=O)N[C@@H](CC1CCCCC1)[C@@H](O)CSC1CCCCC1 | 4 |  |  | inhibition [4]: 0%; inhibition [5]: 9% |
| CC(C)CSC[C@H](O)[C@H](CC1CCCCC1)NC(=O)[C@H](Cc1c[nH]cn1)NC(=O)[C@H](Cc1ccccc1)NC(=O)OC(C)(C)C | 6.5 |  |  |  |
| O=C(NC(Cc1cnc[nH]1)C(=O)N[C@@H](CC1CCCCC1)[C@@H](O)CSC1CCCCC1)C(Cc1ccccc1)Cc1ccccc1 (some centres undefined) | 20 |  |  |  |
| CC(C)S(=O)(=O)C[C@H](O)[C@H](CC1CCCCC1)NC(=O)[C@H](CCO)NC(=O)[C@H](Cc1ccccc1)NC(=O)OC(C)(C)C | 20 |  |  |  |
| CC(C)S(=O)(=O)C[C@H](O)[C@H](CC1CCCCC1)NC(=O)[C@H](CCCN)NC(=O)[C@H](Cc1ccccc1)NC(=O)OC(C)(C)C |  |  |  | inhibition [6]: 43% |
| CC(C)SC[C@H](O)[C@H](CC1CCCCC1)NC(=O)[C@H](Cc1c[nH]cn1)NC(=O)[C@H](Cc1ccccc1)NC(=O)OC(C)(C)C | 4 |  |  | inhibition [4]: 0%; inhibition [5]: 0% |
| CC(C)S(=O)(=O)C[C@H](O)[C@H](CC1CCCCC1)NC(=O)[C@H](Cc1c[nH]cn1)NC(=O)[C@H](Cc1ccccc1)NC(=O)CC(C)(C)C [listing 3 of 3 here] |  | 0 | 0 |  |
| CC(C)S(=O)(=O)C[C@H](O)[C@H](CC1CCCCC1)NC(=O)C(Cc1c[nH]cn1)NC(=O)[C@@H](Cc1ccccc1)NC(=O)OC(C)(C)C (some centres undefined) | 150 | 0 | 0 |  |
| CCOC(=O)N[C@H](C(=O)N[C@@H](Cc1c[nH]cn1)C(=O)N[C@@H](CC1CCCCC1)[C@@H](O)CS(=O)(=O)C(C)C)[C@@H](C)OCc1ccccc1 | 20 |  |  |  |
| O=C(NC(Cc1cnc[nH]1)C(=O)N[C@@H](CC1CCCCC1)[C@@H](O)CS(=O)(=O)C1CCCCC1)C(Cc1ccccc1)Cc1ccccc1 (some centres undefined) | 40 |  |  |  |
| O=C(COc1ccccc1)NC(Cc1c[nH]cn1)C(=O)N[C@@H](CC1CCCCC1)[C@@H](O)CSC1CCCCC1 (some centres undefined) | 430 |  |  |  |
| CC(C)S(=O)(=O)C[C@H](O)[C@H](CC1CCCCC1)NC(=O)[C@H](CCCCN)NC(=O)[C@H](Cc1ccccc1)NC(=O)OC(C)(C)C |  |  |  | inhibition [6]: 34% |
| CC(C)C[C@H](NC(=O)[C@H](Cc1ccccc1)NC(=O)OC(C)(C)C)C(=O)N[C@@H](CC1CCCCC1)[C@@H](O)CS(=O)(=O)C(C)C | 4 |  |  |  |
| CC(C)S(=O)(=O)C[C@H](O)[C@H](CC1CCCCC1)NC(=O)[C@H](Cc1c[nH]cn1)NC(=O)[C@H](COCc1ccccc1)NC(=O)OC(C)(C)C | 75 |  |  |  |
| CC(C)(C)OC(=O)N[C@@H](Cc1ccccc1)C(=O)N[C@@H](Cc1c[nH]cn1)C(=O)N[C@@H](CC1CCCCC1)[C@H](O)CSC1CCCCC1 | 100 |  |  |  |
| CCOC(=O)N[C@@H](Cc1ccccc1)C(=O)N[C@@H](Cc1c[nH]cn1)C(=O)N[C@@H](CC1CCCCC1)[C@@H](O)CS(=O)(=O)C(C)C | 5 |  |  |  |

Now from value to compound, other results behind:

| IC50 [1] [nM] | inhibition [2] [%] | inhibition [3] [%] | SMILES | also measured |
| --- | --- | --- | --- | --- |
| 3.5 |  |  | CC(C)S(=O)(=O)C[C@H](O)[C@H](CC1CCCCC1)NC(=O)[C@H](Cc1c[nH]cn1)NC(=O)[C@H](Cc1ccccc1)NC(=O)CC(C)(C)C [listing 1 of 3 here] |  |
| 300 |  |  | CC(=O)NCCCC[C@H](NC(=O)[C@H](Cc1ccccc1)NC(=O)OC(C)(C)C)C(=O)N[C@@H](CC1CCCCC1)[C@@H](O)CS(=O)(=O)C(C)C |  |
| 6 | 18 | 95 | CC(C)S(=O)(=O)C[C@H](O)[C@H](CC1CCCCC1)NC(=O)[C@@H](NC(=O)[C@H](Cc1ccccc1)NC(=O)OC(C)(C)C)[C@@H](C)OCc1ccccc1 |  |
| 60 |  |  | CC(C)S(=O)(=O)C[C@H](O)[C@H](CC1CCCCC1)NC(=O)[C@H](CCCNC(=O)OCc1ccccc1)NC(=O)[C@H](Cc1ccccc1)NC(=O)OC(C)(C)C |  |
| 25 |  |  | CC(C)CC(NC(=O)C(Cc1ccccc1)Cc1ccccc1)C(=O)N[C@@H](CC1CCCCC1)[C@@H](O)CS(=O)(=O)C(C)C (some centres undefined) |  |
| 8 |  |  | CC(C)S(=O)(=O)C[C@H](O)[C@H](CC1CCCCC1)NC(=O)[C@@H](NC(=O)[C@H](Cc1ccccc1)NC(=O)OC(C)(C)C)[C@@H](C)O |  |
| 30 | 4 | 0 | CC(C)S(=O)(=O)C[C@H](O)[C@H](CC1CCCCC1)NC(=O)[C@H](Cc1ccccc1)NC(=O)[C@H](Cc1ccccc1)NC(=O)OC(C)(C)C |  |
| 10 |  |  | CC(C)C(=O)N[C@H](C(=O)N[C@@H](Cc1c[nH]cn1)C(=O)N[C@@H](CC1CCCCC1)[C@@H](O)CS(=O)(=O)C(C)C)[C@@H](C)OCc1ccccc1 |  |
| 70 | 0 | 55 | CC(C)S(=O)(=O)C[C@H](O)[C@H](CC1CCCCC1)NC(=O)[C@H](C)NC(=O)[C@H](Cc1ccccc1)NC(=O)OC(C)(C)C |  |
| 15 | 4 | 0 | CC(C)(C)OC(=O)N[C@@H](Cc1ccccc1)C(=O)N[C@@H](Cc1c[nH]cn1)C(=O)N[C@@H](Cc1ccccc1)[C@@H](O)CSC1CCCCC1 |  |
| 5.5 | 0 | 0 | CC(C)S(=O)(=O)C[C@H](O)[C@H](CC1CCCCC1)NC(=O)[C@H](Cc1c[nH]cn1)NC(=O)[C@@H](NC(=O)OC(C)(C)C)[C@@H](C)OCc1ccccc1 |  |
| 70 |  |  | CC(C)S(=O)(=O)C[C@H](O)[C@H](CC1CCCCC1)NC(=O)C(Cc1cnc[nH]1)NC(=O)C(Cc1ccccc1)Cc1ccccc1 (some centres undefined) |  |
| 2 | 0 | 0 | CC(C)S(=O)(=O)C[C@H](O)[C@H](CC1CCCCC1)NC(=O)[C@H](Cc1c[nH]cn1)NC(=O)[C@H](Cc1ccccc1)NC(=O)OC(C)(C)C |  |
|  | 0 | 0 | CC(C)S(=O)(=O)C[C@H](O)[C@H](CC1CCCCC1)NC(=O)C(Cc1c[nH]cn1)NC(=O)C(Cc1ccccc1)Cc1ccccc1 (some centres undefined) |  |
| 300 |  |  | CC(C)S(=O)(=O)C[C@H](O)[C@H](CC1CCCCC1)NC(=O)[C@H](Cc1c[nH]cn1)NC(=O)[C@@H](N)[C@@H](C)OCc1ccccc1 |  |
| 3 | 0 | 0 | COc1ccc(C[C@H](NC(=O)OC(C)(C)C)C(=O)N[C@@H](Cc2c[nH]cn2)C(=O)N[C@@H](CC2CCCCC2)[C@@H](O)CS(=O)(=O)C(C)C)cc1 |  |
| 40 |  |  | CC(C)(C)OC(=O)N[C@@H](Cc1ccccc1)C(=O)N[C@@H](Cc1c[nH]cn1)C(=O)N[C@@H](CC1CCCCC1)[C@@H](O)CS(C)(=O)=O |  |
| 10 |  |  | CSC[C@H](O)[C@H](CC1CCCCC1)NC(=O)[C@H](Cc1c[nH]cn1)NC(=O)[C@H](Cc1ccccc1)NC(=O)OC(C)(C)C |  |
